Laboratory results as given in ChEMBL document CHEMBL3045532, “Synthesis and evaluation of novel prodrugs of naproxen” (Med Chem Res, 2011).

Tests used:
Rattus norvegicus [1] = test: Anti-inflammatory activity in Rattus norvegicus Wistar (rat) assessed as inhibition of carrageenan-induced edema volume at 64.7 mg/kg, po measured after 120 min; type: functional; settings: 2 h
Rattus norvegicus [2] = test: Anti-inflammatory activity in Rattus norvegicus Wistar (rat) assessed as inhibition of carrageenan-induced edema volume at 64.7 mg/kg, po measured after 30 min; type: functional; settings: 0.5 h
Mus musculus [3] = test: Analgesic activity in Mus musculus (mouse) assessed as inhibition of acetic acid-induced writhing at 64.7 mg/kg, po pretreated 1 hr before acetic acid challenge; type: functional
Rattus norvegicus [4] = test: Anti-inflammatory activity in Rattus norvegicus Wistar (rat) assessed as inhibition of carrageenan-induced edema volume at 64.7 mg/kg, po measured after 90 min; type: functional; settings: 1.5 h
Rattus norvegicus [5] = test: Anti-inflammatory activity in Rattus norvegicus Wistar (rat) assessed as inhibition of carrageenan-induced edema volume at 64.7 mg/kg, po measured after 60 min; type: functional; settings: 1 h
Rattus norvegicus [6] = test: Anti-inflammatory activity in Rattus norvegicus Wistar (rat) assessed as inhibition of carrageenan-induced edema volume at 69.6 mg/kg, po measured after 60 min; type: functional; settings: 1 h
Rattus norvegicus [7] = test: Anti-inflammatory activity in Rattus norvegicus Wistar (rat) assessed as inhibition of carrageenan-induced edema volume at 69.6 mg/kg, po measured after 120 min; type: functional; settings: 2 h
Rattus norvegicus [8] = test: Anti-inflammatory activity in Rattus norvegicus Wistar (rat) assessed as inhibition of carrageenan-induced edema volume at 69.6 mg/kg, po measured after 90 min; type: functional; settings: 1.5 h
Mus musculus [9] = test: Analgesic activity in Mus musculus (mouse) assessed as inhibition of acetic acid-induced writhing at 69.6 mg/kg, po pretreated 1 hr before acetic acid challenge; type: functional
Rattus norvegicus [10] = test: Anti-inflammatory activity in Rattus norvegicus Wistar (rat) assessed as inhibition of carrageenan-induced edema volume at 69.6 mg/kg, po measured after 30 min; type: functional; settings: 0.5 h
Rattus norvegicus [11] = test: Gastrointestinal toxicity in Rattus norvegicus Wistar (rat) assessed as ulcer at 69.4 mg/kg, po; type: organism-based; set-up: dose 69.4 mg/kg, route oral; settings: in vivo
Rattus norvegicus [12] = test: Anti-inflammatory activity in Rattus norvegicus Wistar (rat) assessed as inhibition of carrageenan-induced edema volume at 67.4 mg/kg, po measured after 90 min; type: functional; settings: 1.5 h
Rattus norvegicus [13] = test: Anti-inflammatory activity in Rattus norvegicus Wistar (rat) assessed as inhibition of carrageenan-induced edema volume at 67.4 mg/kg, po measured after 60 min; type: functional; settings: 1 h
Rattus norvegicus [14] = test: Anti-inflammatory activity in Rattus norvegicus Wistar (rat) assessed as inhibition of carrageenan-induced edema volume at 67.4 mg/kg, po measured after 120 min; type: functional; settings: 2 h
Rattus norvegicus [15] = test: Anti-inflammatory activity in Rattus norvegicus Wistar (rat) assessed as inhibition of carrageenan-induced edema volume at 67.4 mg/kg, po measured after 30 min; type: functional; settings: 0.5 h
Mus musculus [16] = test: Analgesic activity in Mus musculus (mouse) assessed as inhibition of acetic acid-induced writhing at 67.4 mg/kg, po pretreated 1 hr before acetic acid challenge; type: functional
[17] = Prodrug conversion in phosphate buffer assessed as half-life for hydrolysis at pH 7.4; type: physicochemical
Rattus norvegicus [18] = test: Anti-inflammatory activity in Rattus norvegicus Wistar (rat) assessed as inhibition of carrageenan-induced edema volume at 66.4 mg/kg, po measured after 90 min; type: functional; settings: 1.5 h
Rattus norvegicus [19] = test: Anti-inflammatory activity in Rattus norvegicus Wistar (rat) assessed as inhibition of carrageenan-induced edema volume at 66.4 mg/kg, po measured after 120 min; type: functional; settings: 2 h
[20] = Prodrug conversion in acetate buffer assessed as half-life for hydrolysis at pH 3; type: physicochemical
Rattus norvegicus [21] = test: Anti-inflammatory activity in Rattus norvegicus Wistar (rat) assessed as inhibition of carrageenan-induced edema volume at 66.4 mg/kg, po measured after 30 min; type: functional; settings: 0.5 h
[22] = Prodrug conversion in acetate buffer assessed as half-life for hydrolysis at pH 4; type: physicochemical
[23] = Prodrug conversion in acetate buffer assessed as half-life for hydrolysis at pH 5; type: physicochemical
Mus musculus [24] = test: Analgesic activity in Mus musculus (mouse) assessed as inhibition of acetic acid-induced writhing at 66.4 mg/kg, po pretreated 1 hr before acetic acid challenge; type: functional
Rattus norvegicus [25] = test: Gastrointestinal toxicity in Rattus norvegicus Wistar (rat) assessed as ulcer at 66.4 mg/kg, po; type: organism-based; set-up: dose 66.4 mg/kg, route oral; settings: in vivo
Rattus norvegicus [26] = test: Anti-inflammatory activity in Rattus norvegicus Wistar (rat) assessed as inhibition of carrageenan-induced edema volume at 66.4 mg/kg, po measured after 60 min; type: functional; settings: 1 h
Mus musculus [27] = test: Analgesic activity in Mus musculus (mouse) assessed as inhibition of acetic acid-induced writhing at 68.9 mg/kg, po pretreated 1 hr before acetic acid challenge; type: functional
Rattus norvegicus [28] = test: Anti-inflammatory activity in Rattus norvegicus Wistar (rat) assessed as inhibition of carrageenan-induced edema volume at 68.9 mg/kg, po measured after 120 min; type: functional; settings: 2 h
Rattus norvegicus [29] = test: Anti-inflammatory activity in Rattus norvegicus Wistar (rat) assessed as inhibition of carrageenan-induced edema volume at 68.9 mg/kg, po measured after 30 min; type: functional; settings: 0.5 h
Rattus norvegicus [30] = test: Anti-inflammatory activity in Rattus norvegicus Wistar (rat) assessed as inhibition of carrageenan-induced edema volume at 68.9 mg/kg, po measured after 90 min; type: functional; settings: 1.5 h
Rattus norvegicus [31] = test: Anti-inflammatory activity in Rattus norvegicus Wistar (rat) assessed as inhibition of carrageenan-induced edema volume at 68.9 mg/kg, po measured after 60 min; type: functional; settings: 1 h
Mus musculus [32] = test: Analgesic activity in Mus musculus (mouse) assessed as inhibition of acetic acid-induced writhing at 67.6 mg/kg, po pretreated 1 hr before acetic acid challenge; type: functional
Rattus norvegicus [33] = test: Anti-inflammatory activity in Rattus norvegicus Wistar (rat) assessed as inhibition of carrageenan-induced edema volume at 67.6 mg/kg, po measured after 30 min; type: functional; settings: 0.5 h
Rattus norvegicus [34] = test: Anti-inflammatory activity in Rattus norvegicus Wistar (rat) assessed as inhibition of carrageenan-induced edema volume at 67.6 mg/kg, po measured after 120 min; type: functional; settings: 2 h
Rattus norvegicus [35] = test: Anti-inflammatory activity in Rattus norvegicus Wistar (rat) assessed as inhibition of carrageenan-induced edema volume at 67.6 mg/kg, po measured after 60 min; type: functional; settings: 1 h
Rattus norvegicus [36] = test: Anti-inflammatory activity in Rattus norvegicus Wistar (rat) assessed as inhibition of carrageenan-induced edema volume at 67.6 mg/kg, po measured after 90 min; type: functional; settings: 1.5 h

## COc1ccc2cc(C(C)C(=O)OCC(OC(C)=O)C(OC(C)=O)C(OC(C)=O)C(/C=N/[C@@H](CCCN)C(=O)O)OC(C)=O)ccc2c1 (stereo partly specified)
Rattus norvegicus [1]
  inhibition in vivo at 64.7 mg/kg: 67%
Rattus norvegicus [2]
  inhibition in vivo at 64.7 mg/kg: 24%
Mus musculus [3]
  inhibition in vivo at 64.7 mg/kg: 82%
Rattus norvegicus [4]
  inhibition in vivo at 64.7 mg/kg: 50%
Rattus norvegicus [5]
  inhibition in vivo at 64.7 mg/kg: 32%

## COc1ccc2cc(C(C)C(=O)OCC(OC(C)=O)C(OC(C)=O)C(OC(C)=O)C(/C=N/[C@@H](Cc3ccc(O)c(O)c3)C(=O)O)OC(C)=O)ccc2c1 (stereo partly specified)
Rattus norvegicus [6]
  inhibition in vivo at 69.6 mg/kg: 41%
Rattus norvegicus [7]
  inhibition in vivo at 69.6 mg/kg: 73%
Rattus norvegicus [8]
  inhibition in vivo at 69.6 mg/kg: 50%
Mus musculus [9]
  inhibition in vivo at 69.6 mg/kg: 92.3%
Rattus norvegicus [10]
  inhibition in vivo at 69.6 mg/kg: 44%

## COc1ccc2cc(C(C)C(=O)OCC(OC(C)=O)C(OC(C)=O)C(OC(C)=O)C(/C=N/[C@@H](CC(C)C)C(=O)O)OC(C)=O)ccc2c1 (stereo partly specified)
Rattus norvegicus [11]
  Activity: Non-toxic
Rattus norvegicus [12]
  inhibition in vivo at 67.4 mg/kg: 32%
Rattus norvegicus [13]
  inhibition in vivo at 67.4 mg/kg: 30%
Rattus norvegicus [14]
  inhibition in vivo at 67.4 mg/kg: 64%
Rattus norvegicus [15]
  inhibition in vivo at 67.4 mg/kg: 46%
Mus musculus [16]
  inhibition in vivo at 67.4 mg/kg: 70.5%

## COc1ccc2cc(C(C)C(=O)OCC(OC(C)=O)C(OC(C)=O)C(OC(C)=O)C(/C=N/[C@@H](CS)C(=O)O)OC(C)=O)ccc2c1 (stereo partly specified)
[17]
  t1/2: 30 h
Rattus norvegicus [18]
  inhibition in vivo at 66.4 mg/kg: 57%
Rattus norvegicus [19]
  inhibition in vivo at 66.4 mg/kg: 67%
[20]
  t1/2: 44 h
Rattus norvegicus [21]
  inhibition in vivo at 66.4 mg/kg: 42%
[22]
  t1/2: 15 h
[23]
  t1/2: 77 h
Mus musculus [24]
  inhibition in vivo at 66.4 mg/kg: 30.4%
Rattus norvegicus [25]
  Activity: Non-toxic
Rattus norvegicus [26]
  inhibition in vivo at 66.4 mg/kg: 30%

## COc1ccc2cc(C(C)C(=O)OCC(OC(C)=O)C(OC(C)=O)C(OC(C)=O)C(/C=N/[C@@H](CCC(=O)O)C(=O)O)OC(C)=O)ccc2c1 (stereo partly specified)
Mus musculus [27]
  inhibition in vivo at 68.9 mg/kg: 64.1%
Rattus norvegicus [28]
  inhibition in vivo at 68.9 mg/kg: 66%
Rattus norvegicus [29]
  inhibition in vivo at 68.9 mg/kg: 32%
Rattus norvegicus [30]
  inhibition in vivo at 68.9 mg/kg: 53%
Rattus norvegicus [31]
  inhibition in vivo at 68.9 mg/kg: 32%

## COc1ccc2cc(C(C)C(=O)OCC(OC(C)=O)C(OC(C)=O)C(OC(C)=O)C(/C=N/[C@@H](CC(=O)O)C(=O)O)OC(C)=O)ccc2c1 (stereo partly specified)
Mus musculus [32]
  inhibition in vivo at 67.6 mg/kg: 75.1%
Rattus norvegicus [33]
  inhibition in vivo at 67.6 mg/kg: 20%
Rattus norvegicus [34]
  inhibition in vivo at 67.6 mg/kg: 45%
Rattus norvegicus [35]
  inhibition in vivo at 67.6 mg/kg: 1%
Rattus norvegicus [36]
  inhibition in vivo at 67.6 mg/kg: 28%
